# Biological target: T1, soybean lipoxygenase (Glycine max, UniProt P08170)
# T1 construct: gene LOX1.1
# T1 sequence (P08170 1-839): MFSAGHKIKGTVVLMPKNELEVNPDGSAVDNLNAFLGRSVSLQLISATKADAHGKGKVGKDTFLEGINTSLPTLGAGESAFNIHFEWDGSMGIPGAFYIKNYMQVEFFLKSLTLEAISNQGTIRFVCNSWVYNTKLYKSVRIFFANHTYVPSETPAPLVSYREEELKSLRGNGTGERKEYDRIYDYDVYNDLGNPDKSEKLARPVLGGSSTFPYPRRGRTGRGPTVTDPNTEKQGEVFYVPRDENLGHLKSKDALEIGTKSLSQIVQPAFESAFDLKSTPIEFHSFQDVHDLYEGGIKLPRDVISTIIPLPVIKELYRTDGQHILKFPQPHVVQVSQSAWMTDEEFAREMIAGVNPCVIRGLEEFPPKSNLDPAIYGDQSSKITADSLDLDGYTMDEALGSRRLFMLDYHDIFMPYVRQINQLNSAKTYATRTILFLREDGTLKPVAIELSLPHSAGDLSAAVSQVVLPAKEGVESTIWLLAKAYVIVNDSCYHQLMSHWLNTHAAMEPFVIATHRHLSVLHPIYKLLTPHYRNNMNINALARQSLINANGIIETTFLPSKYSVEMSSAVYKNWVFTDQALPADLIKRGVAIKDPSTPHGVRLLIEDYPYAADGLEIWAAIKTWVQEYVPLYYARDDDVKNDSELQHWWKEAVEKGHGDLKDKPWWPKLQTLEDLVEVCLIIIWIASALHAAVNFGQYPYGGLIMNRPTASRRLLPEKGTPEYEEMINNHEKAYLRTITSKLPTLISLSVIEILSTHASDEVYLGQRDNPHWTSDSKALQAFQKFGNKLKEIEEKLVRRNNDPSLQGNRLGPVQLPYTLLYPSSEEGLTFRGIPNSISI
# Experiment: soybean lipoxygenase inhibition assay, % inhibition at […] (standard)
# Assay type: biochemical
compound,measurement,value
"C[C@H](Cc1ccc(O)c(O)c1)[C@@H](C)Cc1ccc(O)c(O)c1 [NDGA, nordihydroguaiaretic acid]",inhibition at 100 µM,80.8%
